According to article PMC8790593, “Synthesis of broad-specificity activity-based probes for exo-β-mannosidases” (Organic & Biomolecular Chemistry, 2021):
Read-outs that look alike come from different tables or passages of the source.

Assays:
Type in all cases: biochemical
Details in all cases: read-out: % inhibition at 1 mM
[1] = target: T1, BsGH164 (Bacteroides salyersiae, UniProt I9SUA3); assay: residual activity with 4MU-beta-Man after preincubation; covalent crystal structure ([…] A) and intact MS
T1 construct: gene HMPREF1071_03408; recombinant pET28-His6-BsGH164, E. coli, His6 kept; GH164 exo-beta-mannosidase
T1 sequence (I9SUA3 20-673): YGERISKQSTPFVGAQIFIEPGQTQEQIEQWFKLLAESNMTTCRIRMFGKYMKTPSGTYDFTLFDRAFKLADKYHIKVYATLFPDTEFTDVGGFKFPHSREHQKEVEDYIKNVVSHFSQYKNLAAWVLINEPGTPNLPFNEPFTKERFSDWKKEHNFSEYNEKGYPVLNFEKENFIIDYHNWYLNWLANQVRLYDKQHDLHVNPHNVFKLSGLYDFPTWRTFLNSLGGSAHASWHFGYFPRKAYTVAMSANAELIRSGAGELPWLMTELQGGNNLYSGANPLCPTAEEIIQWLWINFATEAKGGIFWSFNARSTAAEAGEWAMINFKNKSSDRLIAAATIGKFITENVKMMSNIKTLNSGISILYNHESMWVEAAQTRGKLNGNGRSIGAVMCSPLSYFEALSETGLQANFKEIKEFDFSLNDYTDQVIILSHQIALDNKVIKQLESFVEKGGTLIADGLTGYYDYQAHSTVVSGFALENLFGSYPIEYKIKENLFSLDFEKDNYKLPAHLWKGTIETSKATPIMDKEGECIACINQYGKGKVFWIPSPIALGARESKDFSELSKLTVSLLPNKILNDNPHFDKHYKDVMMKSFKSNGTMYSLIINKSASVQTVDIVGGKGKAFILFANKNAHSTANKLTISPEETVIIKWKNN

[2] = target: T2, CmMan5A (Cellvibrio mixtus, UniProt Q6QT42); assay: residual activity with 4MU-beta-Man after preincubation; intact MS
T2 construct: gene man5A; recombinant, codon-optimised gene in pET24a (NdeI/XhoI), C-terminal 6xHis, E. coli; matches previously crystallised form; GH5
T2 sequence (Q6QT42 26-456): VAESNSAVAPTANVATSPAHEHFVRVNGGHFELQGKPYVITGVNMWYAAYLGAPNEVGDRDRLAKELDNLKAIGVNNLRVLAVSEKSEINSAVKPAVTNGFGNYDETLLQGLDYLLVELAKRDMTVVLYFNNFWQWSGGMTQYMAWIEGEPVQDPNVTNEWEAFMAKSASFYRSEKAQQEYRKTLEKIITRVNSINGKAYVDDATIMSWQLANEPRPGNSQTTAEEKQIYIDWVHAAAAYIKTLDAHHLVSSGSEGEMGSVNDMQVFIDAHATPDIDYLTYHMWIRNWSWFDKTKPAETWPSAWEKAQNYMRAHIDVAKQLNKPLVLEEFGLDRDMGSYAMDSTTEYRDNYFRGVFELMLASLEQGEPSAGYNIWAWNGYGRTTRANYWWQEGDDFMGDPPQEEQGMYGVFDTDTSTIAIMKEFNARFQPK

[3] = target: T1, BsGH164; assay: residual activity with 4MU-beta-Man after preincubation; covalent crystal structure ([…] A) and intact MS; remark: listed apart in the source
[4] = target: T2, CmMan5A; assay: as above
[5] = target: T3, BtMan2A (Bacteroides thetaiotaomicron, UniProt Q8AAK6); assay: as above
T3 construct: gene BT_0458; recombinant pET28a-BtMan2A-His6, E. coli, His tag kept; GH2 exo-beta-mannosidase
T3 sequence (Q8AAK6 26-864): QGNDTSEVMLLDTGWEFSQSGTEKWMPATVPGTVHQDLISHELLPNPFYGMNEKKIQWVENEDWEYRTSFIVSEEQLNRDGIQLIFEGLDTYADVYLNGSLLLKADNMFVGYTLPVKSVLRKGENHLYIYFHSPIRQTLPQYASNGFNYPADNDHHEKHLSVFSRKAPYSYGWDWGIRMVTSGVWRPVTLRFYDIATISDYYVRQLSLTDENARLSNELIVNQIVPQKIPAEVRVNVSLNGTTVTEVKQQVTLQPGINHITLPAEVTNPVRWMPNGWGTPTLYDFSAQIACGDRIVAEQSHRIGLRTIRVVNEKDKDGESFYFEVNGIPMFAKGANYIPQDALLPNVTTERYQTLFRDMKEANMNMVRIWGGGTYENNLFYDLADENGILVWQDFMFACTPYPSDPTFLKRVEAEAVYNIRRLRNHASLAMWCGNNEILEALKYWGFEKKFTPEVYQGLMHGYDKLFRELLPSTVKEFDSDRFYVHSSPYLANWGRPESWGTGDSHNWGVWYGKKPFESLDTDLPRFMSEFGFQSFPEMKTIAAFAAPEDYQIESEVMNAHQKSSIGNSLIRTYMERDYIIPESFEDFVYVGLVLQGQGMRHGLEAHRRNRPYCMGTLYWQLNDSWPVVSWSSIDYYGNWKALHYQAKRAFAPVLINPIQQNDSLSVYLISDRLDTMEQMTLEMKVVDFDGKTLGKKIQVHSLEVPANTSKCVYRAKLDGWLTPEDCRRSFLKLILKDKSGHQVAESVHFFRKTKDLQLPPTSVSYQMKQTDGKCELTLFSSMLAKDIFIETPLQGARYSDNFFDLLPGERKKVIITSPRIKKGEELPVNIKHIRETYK

Row | Structure (SMILES) | inhibition at 1000 µM [1] [%] | inhibition at 1000 µM [2] [%] | inhibition at 1000 µM [3] [%] | inhibition at 1000 µM [4] [%] | inhibition at 1000 µM [5] [%]
1 | OC[C@@H]1[C@@H](O)[C@H](O)[C@H](O)[C@@H]2O[C@H]12 [compound 1, β-D-manno-cyclophellitol] | 76 | 20 |  |  | 
2 | OC[C@@H]1[C@@H](O)[C@H](O)[C@H](O)[C@@H]2N[C@H]12 [compound 2, β-D-manno-cyclophellitol aziridine] |  | 20 | 30 |  | 
3 | [N-]=[N+]=NCCCCCCCCN1[C@@H]2[C@H](CO)[C@@H](O)[C@H](O)[C@H](O)[C@@H]21 (stereo partly drawn) [compound 3, N-octylazido aziridine 3] |  |  |  | 85 | 85
